Columns and labels:
[1] = Stability in human plasma; format: in vitro ADME; details: 2 μM peptidomimetic, pooled human plasma, 37° C.; for half-life at 2 μM: pH 7.8, read-out: half-life (t1/2) when incubated with human plasma
Method: (§1) Reactions were terminated by the addition of TFA/H2O (15 mL, 10% (v/v)). […] The column was equilibrated with TFA/H20, at a flow rate of 1 mL/min.

[2] = tested on: RIN5F (Rat Insulinoma) cells; test: In vitro glucose-dependent insulin secretion (RIN5F cell assay screening protocol); format: cell-based; details: 16.7 mM glucose load
[3] = Stability in liver microsomes; format: in vitro ADME; details: 2 μM peptidomimetic, human liver microsomes, 37° C.; for half-life at 2 μM: pH 7.8, read-out: half-life (t1/2) when incubated with liver microsomes
Method: as §1

[4] = Stability in simulated gastric fluid; format: in vitro ADME; details: 2 μM peptidomimetic, simulated gastric fluid pH 1.5, 37° C.; for half-life at 2 μM: read-out: half-life (t1/2) when incubated with simulated gastric fluid
Method: as §1

DPP IV = DPP IV (Homo sapiens, UniProt P27487); test: Stability against DPP IV enzyme; format: in vitro ADME; details: 37° C.; for % degradation of peptidomimetics in 24 h when incubated with DPP-IV enzyme: 2 μM peptidomimetic; for half-life at 2 μM: DPP IV enzyme, pH 7.8, 2 μM peptidomimetic, read-out: half-life (t1/2) when incubated with DPP-IV enzyme
Method: as §1

Human GLP-1 receptor = target: T1, Human GLP-1 receptor (Homo sapiens, UniProt P43220); test: In vitro Human GLP-1 R agonist activity (cyclic AMP determination) in CHO/human GLP1R cells; format: cell-based
T1 construct: The full-length cDNA was cloned in pcDNA3.1(+); expressed in transfected cells

[5] = Stability in simulated intestinal fluid; format: in vitro ADME; details: 2 μM peptidomimetic, simulated intestinal fluid pH 7.5, 37° C.; for half-life at 2 μM: read-out: half-life (t1/2) when incubated with simulated intestinal fluid
Method: as §1

human glucagon receptor = target: T2, human glucagon receptor (Homo sapiens, UniProt P47871); test: In vitro human glucagon antagonist activity (inhibition of cAMP production) in CHO/human glucagon R cells; format: cell-based; details: with saturated concentration of glucagon peptide
T2 construct: The full-length cDNA was cloned in pcDNA3.1 (Invitrogen); expressed in transfected cells
T2 sequence (P47871 26-477): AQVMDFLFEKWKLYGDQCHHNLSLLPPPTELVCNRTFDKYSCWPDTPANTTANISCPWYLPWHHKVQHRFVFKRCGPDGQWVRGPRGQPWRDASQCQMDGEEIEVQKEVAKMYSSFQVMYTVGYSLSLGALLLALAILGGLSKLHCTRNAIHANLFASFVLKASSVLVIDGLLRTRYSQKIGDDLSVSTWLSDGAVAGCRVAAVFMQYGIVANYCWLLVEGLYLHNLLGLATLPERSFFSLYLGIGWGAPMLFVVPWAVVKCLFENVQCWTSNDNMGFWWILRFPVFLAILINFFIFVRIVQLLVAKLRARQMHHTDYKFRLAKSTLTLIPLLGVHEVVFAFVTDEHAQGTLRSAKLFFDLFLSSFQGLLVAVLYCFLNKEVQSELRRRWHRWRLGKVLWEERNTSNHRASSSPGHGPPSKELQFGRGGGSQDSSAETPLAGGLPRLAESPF

T1 sequence (P43220 24-463): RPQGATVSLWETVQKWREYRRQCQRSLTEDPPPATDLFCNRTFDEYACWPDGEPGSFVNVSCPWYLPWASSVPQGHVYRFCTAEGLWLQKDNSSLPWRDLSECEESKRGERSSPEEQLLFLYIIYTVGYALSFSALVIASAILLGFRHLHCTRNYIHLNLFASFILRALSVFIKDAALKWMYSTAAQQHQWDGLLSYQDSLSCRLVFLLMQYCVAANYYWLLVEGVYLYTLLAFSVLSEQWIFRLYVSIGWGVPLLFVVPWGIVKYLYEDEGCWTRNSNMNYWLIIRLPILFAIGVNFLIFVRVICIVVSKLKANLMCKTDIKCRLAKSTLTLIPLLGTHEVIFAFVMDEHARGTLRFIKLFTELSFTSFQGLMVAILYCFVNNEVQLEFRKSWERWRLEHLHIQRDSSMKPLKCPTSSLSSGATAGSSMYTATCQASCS
Sequence of DPP IV (P27487 whole entry, species assumed): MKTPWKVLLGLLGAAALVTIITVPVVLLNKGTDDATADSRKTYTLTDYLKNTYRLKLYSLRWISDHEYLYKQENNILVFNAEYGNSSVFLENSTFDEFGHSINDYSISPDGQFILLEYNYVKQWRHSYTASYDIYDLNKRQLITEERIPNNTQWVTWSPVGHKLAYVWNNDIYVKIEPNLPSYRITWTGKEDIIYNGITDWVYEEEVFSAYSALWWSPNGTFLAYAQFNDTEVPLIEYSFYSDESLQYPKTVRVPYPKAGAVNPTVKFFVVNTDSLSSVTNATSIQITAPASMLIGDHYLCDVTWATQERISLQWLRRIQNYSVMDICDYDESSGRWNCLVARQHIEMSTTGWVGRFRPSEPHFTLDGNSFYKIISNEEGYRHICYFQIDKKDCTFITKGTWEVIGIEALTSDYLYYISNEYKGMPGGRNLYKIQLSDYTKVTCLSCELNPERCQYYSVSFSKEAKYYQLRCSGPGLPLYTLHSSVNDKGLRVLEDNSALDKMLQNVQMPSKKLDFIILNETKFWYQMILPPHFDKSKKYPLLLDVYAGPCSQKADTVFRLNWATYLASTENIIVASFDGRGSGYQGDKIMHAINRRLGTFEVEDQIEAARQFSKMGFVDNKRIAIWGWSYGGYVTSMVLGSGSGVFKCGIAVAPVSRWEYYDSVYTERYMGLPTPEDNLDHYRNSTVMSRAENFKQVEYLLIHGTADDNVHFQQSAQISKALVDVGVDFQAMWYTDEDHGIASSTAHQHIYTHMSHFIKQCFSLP

SMILES | % degradation of peptidomimetics in 24 h when incubated with human plasma [1] | Insulin secretion ([2]; 0.1 nM test compd.) | Insulin secretion ([2]; 1 nM test compd.) | Insulin secretion ([2]; 10 nM test compd.) | % degradation of peptidomimetics in 24 h when incubated with liver microsomes [3] | % degradation of peptidomimetics in 24 h when incubated with simulated gastric fluid [4] | half-life at 2 μM [4] | % degradation of peptidomimetics in 24 h when incubated with DPP-IV enzyme (DPP IV) | Human GLP-1 R activity (cAMP release), % activity with respect to control (Human GLP-1 receptor; 1 nM test compound) | Human GLP-1 R activity (cAMP release), % activity with respect to control (Human GLP-1 receptor; 10 nM test compound) | Human GLP-1 R activity (cAMP release), % activity with respect to control (Human GLP-1 receptor; 100 nM test compound) | Human GLP-1 R activity (cAMP release), % activity with respect to control (Human GLP-1 receptor; 1 μM test compound) | Human GLP-1 R activity (cAMP release), % activity with respect to control (Human GLP-1 receptor; 10 μM test compound) | % degradation of peptidomimetics in 24 h when incubated with simulated intestinal fluid [5] | half-life at 2 μM [5] | Human Glucagon receptor antagonistic activity shown as inhibition of cAMP production of Glucagon peptide (human glucagon receptor; 1 nM test compound) | Human Glucagon receptor antagonistic activity shown as inhibition of cAMP production of Glucagon peptide (human glucagon receptor; 10 nM test compound) | Human Glucagon receptor antagonistic activity shown as inhibition of cAMP production of Glucagon peptide (human glucagon receptor; 100 nM test compound) | Human Glucagon receptor antagonistic activity shown as inhibition of cAMP production of Glucagon peptide (human glucagon receptor; 1 μM test compound) | Human Glucagon receptor antagonistic activity shown as inhibition of cAMP production of Glucagon peptide (human glucagon receptor; 10 μM test compound) | other results
CCc1cc(OC)ccc1-c1ccc(CC(NC(=O)[C@H](CC(=O)O)NC(=O)[C@H](CO)NC(=O)[C@@H](NC(=O)C(C)(Cc2ccccc2F)NC(=O)[C@@H](NC(=O)CNC(=O)C(CCC#N)NC(=O)C(C)(C)NC(=O)[C@@H](N)Cc2c[nH]cn2)[C@@H](C)O)[C@H](C)O)C(=O)NC(CCCc2ccccc2F)C(N)=O)cc1 (single isomer, unassigned) [compound 120] | 00% | 16.3 ± 0.15 pg/µg/h | 22.4 ± 0.21 pg/µg/h | 36.2 ± 0.11 pg/µg/h | 80% | 41% | 4 h | 00% | 99 ± 0.12% | 99 ± 0.15% | 99 ± 0.18% | 99 ± 0.03% | 99 ± 0.09% | 00% | > 24 h | 0 pmol/ml/μg prt | 0 pmol/ml/μg prt | 0 pmol/ml/μg prt | 0 pmol/ml/μg prt | 0 pmol/ml/μg prt | half-life at 2 μM [1]: > 24 h; half-life at 2 μM [3]: 2 h; half-life at 2 μM (DPP IV): > 24 h
CCc1cc(OC)ccc1-c1ccc(CC(NC(=O)[C@H](CC(=O)O)NC(=O)[C@H](CO)NC(=O)[C@@H](NC(=O)[C@H](Cc2ccccc2)NC(=O)[C@@H](NC(=O)CNC(=O)C(CCC#N)NC(=O)C(C)(C)NC(=O)[C@@H](N)Cc2c[nH]cn2)[C@@H](C)O)[C@@H](C)O)C(=O)NC(CCCc2ccccc2F)C(N)=O)cc1 (single isomer, unassigned) [compound 77] | 75% | 15.6 ± 0.33 pg/µg/h | 21.8 ± 0.16 pg/µg/h | 35.6 ± 0.26 pg/µg/h | 100% | 100% | 0.5 h | 74% | 40 ± 0.09% | 81 ± 0.07% | 87 ± 0.04% | 95 ± 0.01% | 98 ± 0.08% | 100% | 0.5 h | 20 ± 0.06 pmol/ml/μg prt | 18 ± 0.09 pmol/ml/μg prt | 16 ± 0.01 pmol/ml/μg prt | 14 ± 0.03 pmol/ml/μg prt | 12 ± 0.01 pmol/ml/μg prt | half-life (t1/2) when incubated with human plasma [1]: (9) h; half-life at 2 μM [3]: 0.5 h
CCc1cc(OC)ccc1-c1ccc(CC(NC(=O)[C@H](CC(=O)O)NC(=O)[C@H](CO)NC(=O)[C@@H](NC(=O)C(C)(Cc2ccccc2F)NC(=O)[C@@H](NC(=O)CNC(=O)C(CCC#N)NC(=O)C(C)(C)NC(=O)[C@@H](N)Cc2c[nH]cn2)[C@H](C)O)[C@@H](C)O)C(=O)NC(CCCc2ccccc2F)C(N)=O)cc1 (single isomer, unassigned) [compound 112] | 00% | 15.3 ± 0.19 pg/µg/h | 21.2 ± 0.11 pg/µg/h | 35.5 ± 0.19 pg/µg/h | 82% | 49% | 4 h | 00% | 39 ± 0.10% | 81 ± 0.08% | 89 ± 0.09% | 96 ± 0.11% | 99 ± 0.16% | 00% | > 24 h | 6 ± 0.01 pmol/ml/μg prt | 5 ± 0.02 pmol/ml/μg prt | 2 ± 0.13 pmol/ml/μg prt | 0 pmol/ml/μg prt | 0 pmol/ml/μg prt | half-life at 2 μM [1]: > 24 h; half-life at 2 μM [3]: 2 h; half-life at 2 μM (DPP IV): > 24 h
CCc1cc(OC)ccc1-c1ccc(CC(NC(=O)[C@H](CC(=O)O)NC(=O)[C@H](CO)NC(=O)[C@@H](NC(=O)C(C)(Cc2ccccc2F)NC(=O)[C@@H](NC(=O)CNC(=O)C(CCC#N)NC(=O)C(C)(C)NC(=O)[C@H](Cc2c[nH]cn2)NC(=O)OC)[C@@H](C)O)[C@@H](C)O)C(=O)NC(CCCc2ccccc2)C(N)=O)cc1 (single isomer, unassigned) [compound 206] | 00% | 12.1 ± 0.42 pg/µg/h | 14.6 ± 0.41 pg/µg/h | 27.8 ± 0.46 pg/µg/h | 32% | 00% | > 24 h | 00% | 39 ± 0.12% | 80 ± 0.15% | 86 ± 0.18% | 95 ± 0.03% | 98 ± 0.09% | 00% | > 24 h | 0 pmol/ml/μg prt | 0 pmol/ml/μg prt | 0 pmol/ml/μg prt | 0 pmol/ml/μg prt | 0 pmol/ml/μg prt | half-life at 2 μM [1]: > 24 h; half-life (t1/2) when incubated with liver microsomes [3]: (5) h; half-life at 2 μM (DPP IV): > 24 h
